The values below come from paper PMC12203311, “Design, synthesis, in silico and in vitro evaluation of pyrrole–indole hybrids as dual tubulin and aromatase inhibitors with potent anticancer activities” (RSC Advances, 2025).

In assay [1] the test system is RPMI-8226. In words: NCI60 five-dose screen. It counts as cell-based. Conditions: Homo sapiens, RPMI-8226, leukemia; for CC50: read-out: LC50 (the source's name).
Assay [2] has as its system HOP-62. Put plainly: NCI60 five-dose screen. The settings on record: Homo sapiens, HOP-62, NSC lung cancer; for CC50: read-out: LC50 (the source's name). It counts as cell-based.
Assay [3] concerns M14. In words: NCI60 five-dose screen. The assay is classed as cell-based. Conditions: Homo sapiens, M14, melanoma; for CC50: read-out: LC50 (the source's name).
For assay [4], the system named is A498. Put plainly: NCI60 five-dose screen. Conditions: Homo sapiens, A498, renal cancer; for CC50: read-out: LC50 (the source's name). The assay is classed as cell-based.
For assay [5], the system named is ACHN. In words: NCI60 five-dose screen. The assay is classed as cell-based. Conditions: Homo sapiens, renal cancer; for CC50: read-out: LC50 (the source's name).
Assay [6] relates to MDA-MB-231/ATCC. Put plainly: NCI60 five-dose screen. It counts as cell-based. Conditions: Homo sapiens, breast cancer; for CC50: read-out: LC50 (the source's name).
In assay [7] the test system is NCI60 human cancer cell line panel. In words: NCI60 five-dose screen, ranges over the panel. The assay is classed as cell-based. Conditions: for GI50: five-dose experiment, all cell lines, read-out: GI50 values (range over the panel).
Assay [8] has as its system SR. Put plainly: NCI60 five-dose screen. It counts as cell-based. Conditions: Homo sapiens, leukemia.
Assay [9] deals with T1, porcine brain tubulin (Sus scrofa, UniProt P02550+P02554).
T1 construct: a solution containing porcine brain tubulin (2 mg mL^−1); purchased Cytoskeleton BK011P; host or cells: porcine brain (tissue-purified)
T1 sequence (P02554 whole entry): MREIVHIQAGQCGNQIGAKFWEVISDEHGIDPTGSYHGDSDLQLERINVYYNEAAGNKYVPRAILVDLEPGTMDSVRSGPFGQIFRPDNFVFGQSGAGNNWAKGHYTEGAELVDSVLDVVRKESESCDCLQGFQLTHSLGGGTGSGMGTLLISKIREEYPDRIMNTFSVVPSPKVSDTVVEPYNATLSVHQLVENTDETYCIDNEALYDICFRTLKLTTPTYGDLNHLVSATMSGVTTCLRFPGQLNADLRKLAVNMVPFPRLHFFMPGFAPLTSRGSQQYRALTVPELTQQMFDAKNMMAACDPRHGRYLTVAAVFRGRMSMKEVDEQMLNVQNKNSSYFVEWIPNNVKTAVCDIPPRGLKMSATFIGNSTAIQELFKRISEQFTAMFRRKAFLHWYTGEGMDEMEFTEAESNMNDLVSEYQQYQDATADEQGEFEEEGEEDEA
T1 sequence (P02550 whole entry): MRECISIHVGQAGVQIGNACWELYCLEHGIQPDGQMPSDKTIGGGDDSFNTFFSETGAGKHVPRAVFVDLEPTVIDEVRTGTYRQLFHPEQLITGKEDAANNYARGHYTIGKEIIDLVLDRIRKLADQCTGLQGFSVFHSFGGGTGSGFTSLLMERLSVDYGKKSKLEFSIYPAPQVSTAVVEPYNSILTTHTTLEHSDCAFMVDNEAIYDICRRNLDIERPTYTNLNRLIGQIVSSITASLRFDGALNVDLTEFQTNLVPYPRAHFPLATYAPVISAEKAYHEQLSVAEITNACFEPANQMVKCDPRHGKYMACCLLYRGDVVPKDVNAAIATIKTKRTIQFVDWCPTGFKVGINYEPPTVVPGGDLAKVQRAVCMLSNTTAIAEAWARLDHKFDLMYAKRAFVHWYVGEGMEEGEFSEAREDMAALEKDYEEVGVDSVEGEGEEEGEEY
Put plainly: Tubulin polymerisation assay (fluorescence-based). The assay is classed as biochemical. Conditions: 10 µM, 37 °C. As for the experimental part: The tubulin polymerisation experimental protocol followed the method described in this literature.[28] The experimental was using fluorescence-based assay kit (Cytoskeleton, catalog no. BK011P). In Brief, 5 µL of test compounds was added to a 96-well plate, then mix with 50 µL of a solution containing porcine brain tubulin (2 mg mL^−1) in buffer with 20% glycerol and 1 mM GTP. A microplate reader (Varioskan™ LUX multimode microplate reader, Thermo Scientific™) was used to measure fluorescence intensity every 60 seconds for 60 minutes, with excitation at 360 nm and emission at 450 nm, maintained at 37 °C throughout the experiment.

SMILES strings stand for the structures.

Regarding `Cc1cc(C)c(/C=N/NC(=O)c2[nH]c3ccc(Br)cc3c2-c2ccccc2)[nH]1` [Derivative 3c, (E)-5-Bromo-N′-((3,5-dimethyl-1H-pyrrol-2-yl)methylene)-3-phenyl-1H-2-carbohydrazide], the concentration for 50% growth inhibition (GI50) in assay [1] worked out at 2.43 µM; in assay [2] it was 2.97 µM; in assay [3] it was 4.45 µM; in [4] it was 8.25 µM; in assay [5], 3.03 µM; in assay [6], 2.78 µM. Further, the concentration for 50% growth inhibition (GI50) in assay [7] lay within 1.77 to 8.25 µM. Further, the CC50 in assay [1] is more than 100 µM; in [2], 69.3 µM; in assay [3], 49.9 µM; in [4], 46.9 µM; in [5], 34.2 µM; in [6] it was 32.8 µM.

As for `O=C(N/N=C/c1cc(Br)c(Br)[nH]1)c1[nH]c2ccc(Br)cc2c1-c1ccccc1` [Derivative 3f, (E)-5-Bromo-N′-((4,5-dibromo-1H-pyrrol-2-yl)methylene)-3-phenyl-1H-indole-2-carbohydrazide], the GI50 turned out to be 2.27 µM in assay [1]; 3.52 µM in assay [2]; 2.81 µM in assay [3]; 11.1 µM in [4]; 2.59 µM in assay [5]; 2.49 µM in assay [6]. In addition, the GI50 in [7] was 0.53 to 6.8 µM. Besides, the CC50 is more than 100 µM in [1]; more than 100 µM in assay [2]; 66.1 µM in assay [3]; 49.4 µM in assay [4]; 35.5 µM in [5]; 26.3 µM in [6].

As to `O=C(N/N=C/c1cc(Cl)c[nH]1)c1[nH]c2ccc(Br)cc2c1-c1ccccc1` [Derivative 3h, (E)-5-Bromo-N′-((4-chloro-1H-pyrrol-2-yl)methylene)-3-phenyl-1H-indole-2-carbohydrazide], the concentration for 50% growth inhibition (GI50) in assay [1] was found to be 0.446 µM; in assay [8] it was 0.179 µM; in assay [2], 0.408 µM; in assay [3], 0.305 µM; in assay [4] it was 1.45 µM; in assay [5], 0.493 µM. In assay [6], this compound had a GI50 of 0.296 µM. For the same compound, the CC50 was more than 100 µM in assay [1]; 4.6 µM in assay [8] (read-out: LC50 (the source's name)); 34.7 µM in assay [2]; 50.3 µM in [3]; 42.1 µM in assay [4]; 32.1 µM in [5]. In addition, the CC50 in assay [6] is 26.9 µM; in [7] (HL-60 (TB), K-562, SR, NCI-H460, COLO 205, HCC-2998, HT29, SK-MEL-5, OVCAR-8, read-out: LC50 values (range over named cell lines)), 0.8 to 7.2 µM. For the same compound, in assay [9], the “RFU in tubulin polymerization assay” value was approximately 40 arbitrary units.

The GI50 is the concentration giving 50% growth inhibition.
